Structures can show the parent of a compound that is named as a salt. Where two headings read alike, the source gives them in different places.
Experiments:
[1] = molecular target: T1, SIGMA RECEPTOR (Cavia porcellus, UniProt Q60492); test: Sigma receptor binding assay ([3H]-d-SKF-10,047 displacement, brain membranes); parameters: species or system guinea-pig (male Hartley); conditions: for IC50: read-out: SIGMA RECEPTOR IC50
T1 construct: Two milliter aliquots of the brain membrane preparation, containing 1.7 mg of protein; tissue Pel-Freeze (Rogers, Arkansas); host or cells: guinea-pig brains plus cerebella, membranes
T1 sequence (Q60492 whole entry): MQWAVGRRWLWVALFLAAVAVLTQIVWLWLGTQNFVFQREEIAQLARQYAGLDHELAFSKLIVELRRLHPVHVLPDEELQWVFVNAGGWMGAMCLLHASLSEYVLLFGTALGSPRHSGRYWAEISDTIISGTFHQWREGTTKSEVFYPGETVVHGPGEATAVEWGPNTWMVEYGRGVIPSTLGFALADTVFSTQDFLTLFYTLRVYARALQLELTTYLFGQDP
Protocol: (§1) This example illustrates testing of compounds in receptor binding assays.
(§2) Frozen brains from male Hartley guinea-pigs were obtained from Pel-Freeze (Rogers, Arkansas).
(§3) The brains plus cerebella were homogenized in 10 volumes (v/w) of 0.1M, pH 7.4, ice-cold Tris-HCl buffer with a Brinkmann polytron at setting 4 for 20 seconds. The homogenates were centrifuged at 20,000×g for 20 minutes at 4° C. The pellets were suspended in 10 volumes of ice-cold water and, after sitting on ice for 10 minutes, were centrifuged 30 minutes at 20,000×g at 4° C. The resulting pellets were resuspended in the above Tris buffer in ratio 1:100 (w/v) for σ receptor assays or in 5 mM Tris-HCl having pH 7.4, for PCP receptor assays. The final suspension was homogenized with a dounce glass-glass tissue grinder Wheaton "200", at small clearance (B), with three strokes before use. Two milliter aliquots of the brain membrane preparation, containing 1.7 mg of protein, were incubated in quadruplicate for one hour at 23° C. with competing mixture of ligand and radioligand. For σ receptors, [^3 H]-d-SKF-10,047, 2 nM was used. For PCP receptors, [^3 H] TCP [^3 H]-1-[1-(2-thienyl)cyclohexyl]piperidine), 1 nM was used. The nonspecific bindings were defined by 0.1 mM d-SKF-10,047 and 0.1 mM phencyclidine respectively for σ and PCP receptors. After incubation, free ligand was separated from bound ligand by rapid filtration through Whatman GF/C filters. The filters had been soaked before use in isoamyl alcohol-saturated water to prevent nonspecific [^3 H]-d-SKF-10,047 binding to the filter. In the PCP receptor assay, the filter was soaked in 0.5% polyethylenimine to reduce the filter binding of [^3 H]-TCP. After filtration, the trapped tissue was washed three times with 4 ml aliquots of 0.1 M ice-cold Tris buffer at pH 7.4 for σ receptors and 5 mM, ice-cold Tris buffer pH 7.4 for PCP receptors. The filters were transferred to 5 ml of liquid scintillation fluid and the retained radioactivity was measured by liquid scintillation spectrometry.

[2] = molecular target: PCP RECEPTOR; test: PCP receptor binding assay ([3H]-TCP displacement, brain membranes); parameters: species or system guinea-pig (male Hartley); conditions: read-out: PCP RECEPTOR IC50
Protocol: as §1, §2, §3
Programs in Biomed. 17:107 (1983)].

[3] = test system: σ receptors; conditions: literature; cited from earlier work
[4] = Table 2, aryl ring substituents

SMILES | SIGMA RECEPTOR SLOPE ([1]; Table 3) | IC50 ([1]; Table 3, cycloalkyl ring size) [µM] | IC50 ([2]; Table 3, cycloalkyl ring size) [µM] | affinity / binding at σ receptors (in words) [3] | other results
COc1cccc(C2(CN(C)C)CCCCC2)c1 [Compound 42] | – | – | – | – | SIGMA RECEPTOR SLOPE ([1]; Table 2): 0.70 ± 0.06; IC50 [1, 4]: 2.85 µM; IC50 [2, 4]: > 25 µM
COc1ccc(C2(CN(C)C)CCCCC2)cc1OC [Compound 43] | – | – | – | – | potency at σ receptors (in words) [1]: poor to reasonable potency at σ sites; selectivity for σ receptors (in words) [1]: high selectivity for σ receptors; SIGMA RECEPTOR SLOPE ([1]; Table 2): 0.66 ± 0.13; IC50 [1, 4]: 9.05 µM; IC50 [2, 4]: > 25 µM
c1ccc(C2(CN3CCCCC3)CCCC2)cc1 [Compound 44] | 1.03 ± 0.04 | 0.995 | > 25 | – | –
c1ccc(C2(CN3CCCCC3)CC2)cc1 [Compound 45] | 0.83 ± 0.19 | 5.59 | 8.84 | – | –
O=C(OCCN1CCCC1)C1(c2ccccc2)CCCC1 [Compound 46] | 0.68 ± 0.06 | 0.454 | > 25 | – | –
O=C(OCCN1CCCC1)C1(c2ccccc2)CC1 [Compound 47, 2-(1-Pyrrolidino)ethyl 1-Phenylcyclopropane-1-carboxylate hydrochloride] | 0.78 ± 0.09 | 1.46 | > 25 | – | –
C=CCN1CCC2(C)c3cc(O)ccc3CC1C2C (stereo not drawn) [N-allylnormetazocine] | – | – | – | bind to σ receptors | –
CC1C2Cc3ccc(O)cc3C1(C)CCN2CC1CC1 (stereo not drawn) [cyclazocine, 3-(cyclopropylmethyl)-1,2,3,4,5,6-hexahydro-6,11-dimethyl-2,6-methano-3-benzazocin-8-ol] | – | – | – | bind to σ receptors | –
C=CCN1CC[C@@]23CCCC[C@@H]2[C@@H]1Cc1ccc(O)cc13 [dextrallorphan] | – | – | – | bind to σ receptors | –
CC(C)=CCN1CCC2(C)c3cc(O)ccc3CC1C2C (stereo not drawn) [pentazocine, 2-dimethylallyl-5,9-dimethyl-2-hydroxy-benzomorphan] | – | – | – | bind to σ receptors | –

— patent US5086054A, “Novel arylcycloalkanepolyalkylamines” (SRI International, priority 1990, dated 1992)
